Results: US12172946B2, “Compound containing diphenylmethane structure and use thereof” (GUANGZHOU TROJAN PHARMATEC LTD., priority 2019, dated 2024)

Assay: solubility of the compound in common solvents
Type: physicochemical
Conditions: 25-30° C.; for solubility in DMF: N,N-dimethylformamide; for solubility in i-PrOAc: isopropyl acetate; for solubility in MTBE: methyl tert-butyl ether
Experimental: The solubility of the compound of the present invention in common solvents was investigated (25-30° C.), and the results are shown in Table 1. It can be seen from Table 1 that the compound of the present invention has good solubility in all of heptane, isopropyl acetate (i-PrOAc), methyl tert-butyl ether (MTBE) and N,N-dimethylformamide (DMF), and particularly, the solubility in N,N-dimethylformamide is much higher than Comparative Examples.

| Structure (SMILES) | solubility in DMSO | solubility in MeOH | solubility in DMF | solubility in Heptane | solubility in i-PrOAc | solubility in MTBE |
| --- | --- | --- | --- | --- | --- | --- |
| CCCCCCCCCCCCCOc1cc(C(=O)NCCOCCOc2ccc(C(O)(c3ccccc3)c3ccccc3)cc2)cc(OCCCCCCCCCCCCC)c1OCCCCCCCCCCCCC [DPA-032] | <1% | <1% | >40% | >10% | >10% | >10% |
| CCCCCCCCCCCCCOc1cc(C(=O)NCCOCCOc2ccc(C(O)(c3ccccc3)c3ccccc3Cl)cc2)cc(OCCCCCCCCCCCCC)c1OCCCCCCCCCCCCC (stereo not drawn) [DPA-033] | <1% | <1% | >40% | >30% | >50% | >50% |
| CCCCCCCCCCCCCOc1cc(C(=O)NCCOCCOc2ccc(C(O)(c3ccccc3)c3ccc(Cl)cc3)cc2)cc(OCCCCCCCCCCCCC)c1OCCCCCCCCCCCCC (stereo not drawn) [DPA-034] | <1% | <1% | >40% | >30% | >50% | >50% |
| CC(C)CCCC(C)CCCC(C)CCCC(C)CCOc1ccc(C(N)c2ccc(OCCC(C)CCCC(C)CCCC(C)CCCC(C)C)cc2)cc1 (stereo not drawn) [REF-001, 4,4′-di(dihydrophytanyloxy)-benzhydrylamine, reference compound] | <1% | <1% | >0.1% | >50% | >100% | >100% |
| CC(C)CCCC(C)CCCC(C)CCCC(C)CCOc1cc(COc2ccc(C(N)c3ccccc3)cc2)cc(OCCC(C)CCCC(C)CCCC(C)CCCC(C)C)c1OCCC(C)CCCC(C)CCCC(C)CCCC(C)C (stereo not drawn) [REF-002, reference compound] | <1% | <1% | >0.1% | >100% | >100% | >100% |
